In ChEMBL document CHEMBL5154799, “Discovery of a Novel Stilbene Derivative as a Microtubule Targeting Agent Capable of Inducing Cell Ferroptosis” (J Med Chem, 2022):
The source made the active and inactive calls. The rule behind the calls is not given here.

Tests used:
[1] = MRT in ICR mouse at 10 mg/kg, po single administration measured for 24 hrs post treatment by LC-MS/MS analysis; assay type: ADME, organism-based; details: in vivo
[2] = Selectivity ratio of IC50 for cytotoxicity against human MCF-10A cells assessed as reduction in cell viability to IC50 for cytotoxicity against human A549 cells assessed as reduction in cell viability; assay type: toxicity, cell-based; details: MCF-10A cells versus A549 cells
[3] = test system: A549; test: In vivo antitumor activity against human A549 cells xenografted in athymic nude BALB/c mouse assessed as tumor growth inhibition at 10 mg/kg measured after 30 days relative to control; assay type: functional; details: A549, 720 h, time 30 day, read-out: TGI
[4] = target: T1, Phospholipid hydroperoxide glutathione peroxidase GPX4 (Homo sapiens) (UniProt P36969); test: Inhibition of GPX4 in human A549 cells assessed as decrease in GPX4 protein […] at 5 to 20 uM for 24 hrs by Western blotting analysis; assay type: cell-based; details: dose 5-20 µM
T1 sequence (whole entry): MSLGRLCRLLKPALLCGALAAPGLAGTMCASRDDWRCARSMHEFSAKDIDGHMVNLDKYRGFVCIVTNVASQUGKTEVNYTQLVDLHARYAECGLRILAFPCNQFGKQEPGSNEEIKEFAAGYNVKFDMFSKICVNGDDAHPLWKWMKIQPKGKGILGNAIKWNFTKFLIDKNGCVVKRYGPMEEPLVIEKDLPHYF

[5] = test system: A549; test: Induction of cell death in human A549 cells assessed as vanished mitochondrial cristae at 10 nM for 12 hrs by TEM analysis; assay type: functional, cell-based
[6] = test system: A549; test: Induction of ferroptosis in human A549 cells assessed as accumulation of intracellular ROS incubated for 24 hrs by DCFH-DA staining based fluorescence microscopy; assay type: functional, cell-based; details: dose 5-10 nM, DDE = dose-dependent effect
[7] = Cytotoxicity against human MCF-10A cells assessed as reduction in cell viability; assay type: toxicity, cell-based
[8] = target: T2, Tubulin (Homo sapiens) (UniProt P68371+Q9H4B7+P0DPH7+P68366+Q13509+Q71U36+P04350+Q3ZCM7+P07437+P68363+Q9BQE3+Q6PEY2+Q13885+Q9BVA1+Q9BUF5); test: Inhibition of tubulin polymerization (unknown origin) by microplate reader analysis; assay type: protein-complex assay; details: dose 5-0.16 µM, DDE = dose-dependent effect
[9] = Cmax in ICR mouse at 10 mg/kg, po single administration measured for 24 hrs post treatment by LC-MS/MS analysis; assay type: ADME, organism-based; set-up: time 24 hrs, dose 10 mg/kg, route po; details: in vivo
[10] = test system: A549; test: Induction of ferroptosis in human A549 cells assessed as depletion of GSH levels at 10 nM upto 12 hrs; assay type: functional, cell-based
[11] = test system: A549; test: In vivo antitumor activity against human A549 cells xenografted in athymic nude BALB/c mouse assessed as tumor weight at 10 mg/kg measured after 30 days (reference value: 1 gram); assay type: functional; details: time 30 day
[12] = test system: A549; test: Induction of cell death in human A549 cells assessed as increased mitochondrial membrane density at 10 nM for 12 hrs by TEM analysis; assay type: functional, cell-based
[13] = Selectivity ratio of IC50 for cytotoxicity against human L02 cells assessed as reduction in cell viability to IC50 for cytotoxicity against human A549 cells assessed as reduction in cell viability; assay type: toxicity, cell-based; details: L02 cells versus A549 cells
[14] = target: T2, Tubulin (Homo sapiens); test: Inhibition of [3H]colchicine binding to tubulin (unknown origin) at 2.5 uM by competitive binding assay relative to control; assay type: protein-complex assay
[15] = test system: A549; test: Cell cycle arrest in human A549 cells assessed as downregulation of Cdc25C expression at 5 to 20 nM incubated for 24 to 48 hrs by Western blot analysis; assay type: functional, cell-based; details: dose 5-20 nM, time 24-48 hrs
[16] = Toxicity in athymic nude BALB/c mouse assessed as change in body weight at 10 mg/kg, ip measured for 30 days; assay type: organism-based; details: in vivo, 720 h, time 30 day
[17] = test system: A549; test: Induction of apoptosis in human A549 cells assessed as cell viability pretreated with ferroptosis inhibitor ferrostatin-1 for 24 hrs followed by incubation with compound at 20 nM and measured after 48 hrs by CCK-8 assay; assay type: functional, cell-based
[18] = target: Tubulin; test: Inhibition of [3H]colchicine binding to tubulin (unknown origin) by competitive binding assay; assay type: protein-complex assay, Homo sapiens
[19] = AUC (0 to t) in ICR mouse at 10 mg/kg, po single administration measured for 24 hrs post treatment by LC-MS/MS analysis; assay type: ADME, organism-based; details: in vivo
[20] = Toxicity in human A549 cells xenografted in athymic nude BALB/c nude mouse assessed as morphological changes in liver at 10 mg/kg, ip measured after 30 days by H and E staining based histological analysis; assay type: organism-based; details: in vivo, 720 h, time 30 day
[21] = test system: A549; test: Antiproliferative activity against human adriamycin-resistant A549/ADR cells assessed as cell viability incubated for 48 hrs by MTT assay; assay type: functional, cell-based; details: A549, 48 h
[22] = target: Tubulin; test: Inhibition of tubulin polymerization (unknown origin) assessed as fluorescence intensity emission at 410 nm for 60 mins; assay type: protein-complex assay, Homo sapiens
[23] = test system: A549; test: Antiproliferative activity against human A549 cells assessed as inhibition of cell proliferation incubated for 2 hrs by CCK-8 assay; assay type: functional, cell-based; details: DDE = dose-dependent effect
[24] = target: T2, Tubulin (Homo sapiens); test: Inhibition of [3H]colchicine binding to tubulin (unknown origin) at 5 uM by competitive binding assay relative to control; assay type: protein-complex assay
[25] = target: T2, Tubulin (Homo sapiens); test: Induction of microtubule disruption in human A549 cells assessed as abnormal chromosomes at 5 to 20 uM incubated for 12 hrs by immunofluorescence based laser scanning confocal microscopic analysis; assay type: cell-based; details: dose 5-20 µM
[26] = Cytotoxicity against HLF cells assessed as reduction in cell viability; assay type: toxicity, cell-based; details: human
[27] = target: T2, Tubulin (Homo sapiens); test: Inhibition of [3H]colchicine binding to tubulin (unknown origin) at 1.25 uM by competitive binding assay relative to control; assay type: protein-complex assay
[28] = AUC (0 to t) in ICR mouse at 1 mg/kg, iv single administration measured for 24 hrs post treatment by LC-MS/MS analysis; assay type: ADME, organism-based; details: in vivo
[29] = Half life in ICR mouse at 1 mg/kg, iv single administration measured for 24 hrs post treatment by LC-MS/MS analysis; assay type: ADME, organism-based; details: in vivo
[30] = Cytotoxicity against human L02 cells assessed as reduction in cell viability; assay type: toxicity, cell-based
[31] = test system: A2780; test: Antiproliferative activity against human paclitaxel-resistant A2780/TAX cells assessed as cell viability incubated for 48 hrs by MTT assay; assay type: functional, cell-based; details: A2780, 48 h
[32] = test system: A549; test: In vivo antitumor activity against human A549 cells xenografted in athymic nude BALB/c mouse assessed as tumor volume at 10 mg/kg measured after 30 days (reference value: 1503.3 mm^3); assay type: functional; details: time 30 day
[33] = test system: A549; test: Cell cycle arrest in human A549 cells assessed as downregulation of Cdc2 expression at 5 to 20 nM incubated for 24 to 48 hrs by Western blot analysis; assay type: functional, cell-based; details: dose 5-20 nM, time 24-48 hrs
[34] = Oral bioavailability in ICR mouse at 10 mg/kg single administration measured for 24 hrs post treatment by LC-MS/MS analysis; assay type: ADME, organism-based; details: in vivo
[35] = target: T2, Tubulin (Homo sapiens); test: Inhibition of [3H]colchicine binding to tubulin (unknown origin) at 0.075 uM by competitive binding assay relative to control; assay type: protein-complex assay
[36] = Tmax in ICR mouse at 10 mg/kg, po single administration measured for 24 hrs post treatment by LC-MS/MS analysis; assay type: ADME, organism-based; details: in vivo
[37] = AUC (0 to infinity) in ICR mouse at 1 mg/kg, iv single administration measured for 24 hrs post treatment by LC-MS/MS analysis; assay type: ADME, organism-based; set-up: time 24 hrs, dose 1 mg/kg, route iv; details: in vivo

C=C(c1cc(OC)c(OC)c(OC)c1)c1ccc(OC)c(O)c1NC(=O)CO
MRT [1]: 154 min | selectivity ratio [2]: 54 | inhibition in vivo at 10 mg/kg [3]: 78.6% | Activity [4]: Active | Activity [5]: Active | Activity [6]: Dde | IC50 [7]: 540 nM | inhibition [8]: Dde | Cmax [9]: 776 ng/mL | Activity [10]: Active | Activity [11]: 0.2 g | Activity [12]: Active | selectivity ratio [13]: 145 | inhibition [14]: 64.8% | Activity [15]: Active | Activity [16]: Non-Toxic | Activity [17]: Active | IC50 [18]: 1130 nM | AUCt [19]: 2432.04 h/ng/mL | Activity [20]: Non-Toxic | IC50 [21]: 20 nM | IC50 [22]: 580 nM | Activity [23]: Dde | inhibition [24]: 78.5% | Activity [25]: Active | IC50 [26]: 1320 nM | inhibition [27]: 48.4% | AUCt [28]: 350.19 h/ng/mL | half-life [29]: 37.2 min | IC50 [30]: 1450 nM | IC50 [31]: 40 nM | Activity [32]: 321.1 mm3 | Activity [33]: Active | bioavailability [34]: 69.5% | inhibition [35]: 16.7% | Tmax [36]: 15 min | AUC [37]: 353.02 h/ng/mL
